From patent US11358952B2, “Substituted 4-aminoisoindoline-1,3-dione compounds, compositions thereof, and methods of treatment therewith” (Celgene Corporation, priority 2018, dated 2022)

The compounds below were run on SU-DHL-4 cell line (assay: SU-DHL-4 cell proliferation assay (Cell Titer-Glo viability)). Details: Homo sapiens; cell viability IC50 activity level, DLBCL cell line SU-DHL-4, 120 hours post-treatment; read-out: SU-DHL-4 Act.
Type: cell-based
Protocol: SU-DHL-4 Cell Proliferation Assay.
The following is an example of an assay that can be used to determine the anti-proliferative activity of Isoindolinedione Compounds in a DLBCL cell line, for example, the SU-DHL-4 cell line (Deutsche Sammlung von Mikroorganismen and Zellkulturen GmbH [DSMZ]: catalogue number ACC-495) at 120 hours post-treatment. The seeding density for SU-DHL-4 can be optimized to ensure assay linearity in 1536-well plates.
Increasing concentrations of test compounds (0.5 nM to 10 μM) were spotted in a 20-point dilution fashion (unevenly spaced data points) via an acoustic dispenser (EDC ATS-100) into an empty 1536-well plate. The DMSO concentration was kept constant for a final assay concentration of 0.1% DMSO. Prior to testing, SU-DHL-4 cells were grown in RPMI-1640 (Roswell Park Memorial Institute—1640) medium with 10% FBS (fetal bovine serum: HyClone) and expanded in culture flasks to provide sufficient amounts of starting material. Cells were then diluted to 500 cells per well in a 5 μL volume, and added directly to the compound-spotted 1536-well plates. Cells were allowed to grow for 120 hours in 5% CO2 at 37° C. At the time when exposure of cells to compound began (to), initial viable cell number was assessed via Cell Titer-Glo® Luminescent Cell Viability Assay at a 1 vol:2 vol ratio according to manufacturer's instructions (Promega Corporation, Madison, Wis.) by quantifying the level of luminescence generated by adenosine-5′-triphosphate (ATP) present in viable cells. After 120 hours, cell viability of the treated cells was assessed via Cell Titer-Gb® and read for luminescence. All growth inhibition curves were processed and evaluated using Activity Base (IDBS, Alameda, Calif.). Cell viability IC50 values were calculated using a four parameter logistic model (sigmoidal dose-response model): y=(A+((B−A)/(1+((C/x)^D)))) wherein: A=YMin B=YMax C=EC50 D=Hill slope IC50=the concentration of the compound when Y=50% of DMSO control Y=cell viability measured as luminescence unit, and x=concentration of compound.

| SMILES | IC50 [nM] |
| --- | --- |
| NC(=O)c1ccc(N2CCN(Cc3ccc(CNc4cccc5c4C(=O)N(C4CCC(=O)NC4=O)C5=O)cc3)CC2)cc1 (stereo not drawn) [Cpd 57, 4-(4-(4-((2-(2,6-dioxopiperidin-3-yl)-1,3-dioxoisoindolin-4-ylamino)methyl)benzyl)piperazin-1-yl)benzamide] | < 200 |
| NC(=O)c1ccc(N2CCN(Cc3ccc(CNc4cccc5c4C(=O)N([C@H]4CCC(=O)NC4=O)C5=O)cc3)CC2)cn1 [Cpd 58, (S)-5-(4-(4-((2-(2,6-dioxopiperidin-3-yl)-1,3-dioxoisoindolin-4-ylamino)methyl)benzyl)piperazin-1-yl)picolinamide] | < 200 |
| Cc1cc(CNc2cccc3c2C(=O)N(C2CCC(=O)NC2=O)C3=O)ccc1CN1CCN(c2ccc(C#N)cc2Cl)CC1 (stereo not drawn) [Cpd 61, 3-chloro-4-(4-(4-((2-(2,6-dioxopiperidin-3-yl)-1,3-dioxoisoindolin-4-ylamino)methyl)-2-methylbenzyl)piperazin-1-yl)benzonitrile] | < 200 |
| C[C@@H]1CN(c2ccc(C#N)cc2Cl)CCN1Cc1ccc(CNc2cccc3c2C(=O)N(C2CCC(=O)NC2=O)C3=O)cc1 (stereo partly drawn) [Cpd 62, 3-chloro-4-((3R)-4-(4-((2-(2,6-dioxopiperidin-3-yl)-1,3-dioxoisoindolin-4-ylamino)methyl)benzyl)-3-methylpiperazin-1-yl)benzonitrile] | < 200 |
| O=C1CCC(N2C(=O)c3cccc(NCc4ccc(CN5CC6CC(c7ccc(F)cc7)CC6C5)cc4)c3C2=O)C(=O)N1 [Cpd 64, 2-(2,6-dioxopiperidin-3-yl)-4-(4-(((3aR,5r,6aS)-5-(4-fluorophenyl)hexahydrocyclopenta [c]pyrrol-2-(1H)-yl)methyl)benzylamino)isoindoline-1,3-dione] | 200 to 500 |
| Cc1cc(C#N)ccc1N1CCN(Cc2ccc(CNc3cccc4c3C(=O)N(C3CCC(=O)NC3=O)C4=O)cc2)[C@H](C)C1 (stereo partly drawn) [Cpd 67, 4-((3R)-4-(4-((2-(2,6-dioxopiperidin-3-yl)-1,3-dioxoisoindolin-4-ylamino)methyl)benzyl)-3-methylpiperazin-1-yl)-3-methylbenzonitrile] | < 200 |
| CC(N1CCN(Cc2ccc(CNc3cccc4c3C(=O)N(C3CCC(=O)NC3=O)C4=O)cc2)CC1)C(F)(F)F (stereo not drawn) [Cpd 71, 2-(2,6-dioxopiperidin-3-yl)-4-(4-((4-(1,1,1,-trifluoropropan-2-yl)piperazin-1-yl)methyl)benzylamino)isoindoline-1,3-dione] | < 200 |
| O=C1CCC(N2C(=O)c3cccc(NCc4ccc(CN5CC6(CCCCC6)C5)cc4)c3C2=O)C(=O)N1 (stereo not drawn) [Cpd 72, 4-(4-(2-azaspiro[3.5]nonan-2-ylmethyl)benzylamino)-2-(2,6-dioxopiperidin-3-yl)isoindoline-1,3-dione] | 200 to 500 |
| O=C1CCC(N2C(=O)c3cccc(NCc4ccc(CN5CCC6(CCC6)C5)cc4)c3C2=O)C(=O)N1 (stereo not drawn) [Cpd 73, 4-(4-(6-azaspiro[3.4]octan-6-ylmethyl)benzylamino)-2-(2,6-dioxopiperidin-3-yl)isoindoline-1,3-dione] | 751 to 1000 |
| N#Cc1ccc(OC2CN(Cc3ccc(CNc4cccc5c4C(=O)N(C4CCC(=O)NC4=O)C5=O)cc3)C2)cc1 (stereo not drawn) [Cpd 74, 4-(1-(4-((2-(2,6-dioxopiperidin-3-yl)-1,3-dioxoisoindolin-4-ylamino)methyl)benzyl)azetidin-3-yloxy)benzonitrile] | 501 to 750 |
| Cc1cc(CNc2cccc3c2C(=O)N(C2CCC(=O)NC2=O)C3=O)ccc1CN1CC(Oc2ccc(C#N)cc2)C1 (stereo not drawn) [Cpd 83, 4-(1-(4-((2-(2,6-dioxopiperidin-3-yl)-1,3-dioxoisoindolin-4-ylamino)methyl)-2-methylbenzyl)azetidin-3-yloxy)benzonitrile] | < 200 |

The next lines start with the values.

| IC50 [nM] | SMILES |
| --- | --- |
| < 200 | Cc1cc(CNc2cccc3c2C(=O)N(C2CCC(=O)NC2=O)C3=O)ccc1CN1CCC(n2cccn2)CC1 (stereo not drawn) [Cpd 56, 4-(4-((4-(1H-pyrazol-1-yl)piperidin-1-yl)methyl)-3-methylbenzylamino)-2-(2,6-dioxopiperidin-3-yl)isoindoline-1,3-dione] |
| < 200 | Cc1cc(CNc2cccc3c2C(=O)N(C2CCC(=O)NC2=O)C3=O)ccc1CN1CCN(c2ccc(C#N)cc2C)CC1 (stereo not drawn) [Cpd 60, 4-(4-(4-((2-(2,6-dioxopiperidin-3-yl)-1,3-dioxoisoindolin-4-ylamino)methyl)-2-methylbenzyl)piperazin-1-yl)-3-methylbenzonitrile] |
| < 200 | Cc1cc(CNc2cccc3c2C(=O)N(C2CCC(=O)NC2=O)C3=O)ccc1CN1CCN(c2ccc(C#N)cn2)CC1 (stereo not drawn) [Cpd 63, 6-(4-(4-((2-(2,6-dioxopiperidin-3-yl)-1,3-dioxoisoindolin-4-ylamino)methyl)-2-methylbenzyl)piperazin-1-yl)nicotinonitrile] |
| 200 to 500 | Cc1cc(CNc2cccc3c2C(=O)N(C2CCC(=O)NC2=O)C3=O)ccc1CN1CCN(CC2CC2)CC1 (stereo not drawn) [Cpd 65, 4-(4-((4-(cyclopropylmethyl)piperazin-1-yl)methyl)-3-methylbenzylamino)-2-(2,6-dioxopiperidin-3-yl)isoindoline-1,3-dione] |
| < 200 | Cc1cc(CNc2cccc3c2C(=O)N(C2CCC(=O)NC2=O)C3=O)ccc1CN1CCN(C2CC2)CC1 (stereo not drawn) [Cpd 66, 4-(4-((4-cyclopropylpiperazin-1-yl)methyl)-3-methylbenzylamino)-2-(2,6-dioxopiperidin-3-yl)isoindoline-1,3-dione] |
| < 200 | Cc1cc(CNc2cccc3c2C(=O)N(C2CCC(=O)NC2=O)C3=O)ccc1CN1CCN(C(C)(C)C)CC1 (stereo not drawn) [Cpd 68, 4-(4-((4-tert-butylpiperazin-1-yl)methyl)-3-methylbenzylamino)-2-(2,6-dioxopiperidin-3-yl)isoindoline-1,3-dione] |
| < 200 | Cc1cc(CNc2cccc3c2C(=O)N(C2CCC(=O)NC2=O)C3=O)ccc1CN1CCN(C(C)C)CC1 (stereo not drawn) [Cpd 69, 2-(2,6-dioxopiperidin-3-yl)-4-(4-((4-isopropylpiperazin-1-yl)methyl)-3-methylbenzylamino)isoindoline-1,3-dione] |
| < 200 | Cc1cc(CNc2cccc3c2C(=O)N(C2CCC(=O)NC2=O)C3=O)ccc1CN1CCN(C2CCC2)CC1 (stereo not drawn) [Cpd 70, 4-(4-((4-cyclobutylpiperazin-1-yl)methyl)-3-methylbenzylamino)-2-(2,6-dioxopiperidin-3-yl)isoindoline-1,3-dione] |
| < 200 | Cc1cc(CNc2cccc3c2C(=O)N(C2CCC(=O)NC2=O)C3=O)ccc1CN1CC2(CCCCC2)C1 (stereo not drawn) [Cpd 75, 4-(4-(2-azaspiro[3.5]nonan-2-ylmethyl)-3-methylbenzylamino)-2-(2,6-dioxopiperidin-3-yl)isoindoline-1,3-dione] |
| 200 to 500 | Cc1cc(CNc2cccc3c2C(=O)N(C2CCC(=O)NC2=O)C3=O)ccc1CN1CCC2(CCC2)C1 (stereo not drawn) [Cpd 76, 4-(4-(6-azaspiro[3.4]octan-6-ylmethyl)-3-methylbenzylamino)-2-(2,6-dioxopiperidin-3-yl)isoindoline-1,3-dione] |
| 200 to 500 | Cc1cc(CNc2cccc3c2C(=O)N(C2CCC(=O)NC2=O)C3=O)ccc1CN1CC(n2cccn2)C1 (stereo not drawn) [Cpd 77, 4-(4-((3-(1H-pyrazol-1-yl)azetidin-1-yl)methyl)-3-methylbenzylamino)-2-(2,6-dioxopiperidin-3-yl)isoindoline-1,3-dione] |
| < 200 | Cc1cc(CNc2cccc3c2C(=O)N(C2CCC(=O)NC2=O)C3=O)ccc1CN1CCC(OC(C)C)CC1 (stereo not drawn) [Cpd 78, 2-(2,6-dioxopiperidin-3-yl)-4-(4-((4-isopropoxypiperidin-1-yl)methyl)-3-methylbenzylamino)isoindoline-1,3-dione] |
| 200 to 500 | Cc1cc(CNc2cccc3c2C(=O)N(C2CCC(=O)NC2=O)C3=O)ccc1CN1CCC(C(=O)N(C)C)CC1 (stereo not drawn) [Cpd 79, 1-(4-((2-(2,6-dioxopiperidin-3-yl)-1,3-dioxoisoindolin-4-ylamino)methyl)-2-methylbenzyl)-N,N-dimethylpiperidine-4-carboxamide] |
| < 200 | Cc1cc(CNc2cccc3c2C(=O)N(C2CCC(=O)NC2=O)C3=O)ccc1CN1CC(c2cccnc2)C1 (stereo not drawn) [Cpd 80, 2-(2,6-dioxopiperidin-3-yl)-4-(3-methyl-4-((3-(pyridin-3-yl)azetidin-1-yl)methyl)benzylamino)isoindoline-1,3-dione] |
| 200 to 500 | Cc1cc(CNc2cccc3c2C(=O)N(C2CCC(=O)NC2=O)C3=O)ccc1CN1CC(c2ccccn2)C1 (stereo not drawn) [Cpd 81, 2-(2,6-dioxopiperidin-3-yl)-4-(3-methyl-4-((3-(pyridin-2-yl)azetidin-1-yl)methyl)benzylamino)isoindoline-1,3-dione] |
| 501 to 750 | Cc1cc(CNc2cccc3c2C(=O)N(C2CCC(=O)NC2=O)C3=O)ccc1CN1CC(Oc2ccccc2)C1 (stereo not drawn) [Cpd 82, 2-(2,6-dioxopiperidin-3-yl)-4-(3-methyl-4-((3-phenoxyazetidin-1-yl)methyl)benzylamino)isoindoline-1,3-dione] |
